Columns and labels:
[1] = system: NCI-H460, human non-small cell lung cancer cells; experiment: Cell-MTS proliferation assay, NCI-H460; type: cell-based; details: Homo sapiens, 168 hr
Outline: (§1)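 Seeded for ~90% confluence at 7 days (Raji 15,000, HL-60 5,000, NCI-H460 3,000 cells/well); compound added 24 h post-plating as 11-point dilution, 100 μM to 2.0 nM final.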

[2] = system: HL-60, human proleukemia cells; experiment: Cell-MTS proliferation assay, HL-60; type: cell-based; details: Homo sapiens, 168 hr
Outline: as §1

BRD4(BD1) = BRD4(BD1) (Homo sapiens (Human), UniProt O60885); experiment: In vitro enzyme inhibition assay (BRD4 AlphaScreen); type: binding
Outline: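 His-tagged BRD4 tested by AlphaScreen for binding of biotinylated H4K5/8/12/16-tetraacetyl peptide. After 20 min at room temperature, streptavidin donor and nickel chelate acceptor beads added (5 μg/mL final each). IC50 determined.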

[3] = system: Raji, human Burkitts lymphoma cells; experiment: Cell-MTS proliferation assay, Raji; type: cell-based; details: Homo sapiens, 168 hr
Outline: as §1

[4] = NCI-H460, Cell-MTS proliferation
[5] = in vitro enzyme inhibition assay
[6] = Cell-MTS proliferation, NCI-H460 cells
[7] = Cell-MTS proliferation, HL-60 cells
[8] = Cell-MTS proliferation, Raji cells
[9] = NCI-H460, Cell-MTS, class symbols A/B/C
[10] = HL-60, Cell-MTS, class symbols A/B/C
[11] = Raji, Cell-MTS, class symbols A/B/C

IC50 [1, 4] | IC50 ([2]; HL-60, Cell-MTS proliferation) | IC50 (BRD4(BD1); [5]) | IC50 ([3]; Raji, Cell-MTS proliferation) | IC50 [1, 6] | IC50 [2, 7] | IC50 [3, 8] | IC50 [1, 9] | IC50 [2, 10] | IC50 (BRD4(BD1); class symbols A/B/C) | IC50 [3, 11] | SMILES
> 5 µM | < 500 nM | < 500 nM | < 500 nM | – | – | – | – | – | – | – | CCS(=O)(=O)Nc1ncc(OCC2CC2)c(-c2cn(C)c(=O)c3cc(F)ccc23)n1 [Example 160, N-[5-(cyclopropylmethoxy)-4-(7-fluoro-2-methyl-1-oxoisoquinolin-4-yl)pyrimidin-2-yl]ethanesulfonamide]
– | – | < 500 nM | – | > 5 µM | < 500 nM | < 500 nM | – | – | – | – | CCS(=O)(=O)Nc1ccc(OC2CCC(F)(F)CC2)c(-c2cc(C)c(=O)n(C)c2)c1 [Example 449, N-[4-(4,4-difluorocyclohexyl)oxy-3-(1,5-dimethyl-6-oxopyridin-3-yl)phenyl] ethanesulfonamide]
– | – | – | – | – | – | – | > 5 µM | < 500 nM | < 500 nM | < 500 nM | CCS(=O)(=O)Nc1ccc(Oc2ccc(F)cc2F)c(-c2cn(C)c(=O)c3ccncc23)c1 [Example 127, N-[4-(2,4-difluorophenoxy)-3-(2-methyl-1-oxo-2,6-naphthyridin-4-yl)phenyl]ethanesulfonamide]
0.5 to 5 µM | 500 to 5000 nM | < 500 nM | 500 to 5000 nM | – | – | – | – | – | – | – | Cn1cc(-c2cc(S(C)(=O)=O)ccc2OCC2CC2)cc(Oc2ccccc2)c1=O [Example 295, 5-[2-(cyclopropylmethoxy)-5-methylsulfonylphenyl]-1-methyl-3-phenoxypyridin-2-one]
– | – | < 500 nM | – | > 5 µM | < 500 nM | < 500 nM | – | – | – | – | CCS(=O)(=O)c1ccc(Nc2ccc(F)cc2F)c(-c2cc(C)c(=O)n(C)c2)c1 [Example 396, 5-[2-(2,4-difluoroanilino)-5-ethylsulfonylphenyl]-1,3-dimethylpyridin-2-one]
> 5 µM | 500 to 5000 nM | < 500 nM | 500 to 5000 nM | – | – | – | – | – | – | – | Cn1cc(-c2nc(CS(C)(=O)=O)ncc2OCC2CC2)c2ccccc2c1=O [Example 143, 4-[5-(cyclopropylmethoxy)-2-(methylsulfonylmethyl)pyrimidin-4-yl]-2-methylisoquinolin-1-one]
0.5 to 5 µM | < 500 nM | < 500 nM | < 500 nM | – | – | – | – | – | – | – | CCS(=O)(=O)c1ccc(OCC2CC2)c(-c2cn(C)c(=O)c3oc(C)cc23)c1 [Example 270, 4-[2-(cyclopropylmethoxy)-5-ethylsulfonylphenyl]-2,6-dimethylfuro[2,3-c]pyridine-7-one]
> 5 µM | < 500 nM | < 500 nM | < 500 nM | – | – | – | – | – | – | – | Cn1cc(-c2cc(NS(C)(=O)=O)ccc2Oc2ccc(F)cc2F)n2cncc2c1=O [Example 367, N-[4-(2,4-difluorophenoxy)-3-(7-methyl-8-oxoimidazo[1,5-a]pyrazin-5-yl)phenyl]methanesulfonamide]
– | – | < 500 nM | – | > 5 µM | < 500 nM | < 500 nM | – | – | – | – | Cc1cc(-c2cn(CS(C)(=O)=O)c(=O)cc2Oc2ccc(F)cc2F)cn(C)c1=O [Example 385, 5-[4-(2,4-difluorophenoxy)-1-(methylsulfonylmethyl)-6-oxopyridin-3-yl]-1,3-dimethylpyridin-2-one]
– | – | – | – | – | – | – | > 5 µM | 500 to 5000 nM | < 500 nM | 500 to 5000 nM | CCOc1ccc(S(N)(=O)=O)cc1-c1ccc(=O)n(C)c1 [Example 117, 4-ethoxy-3-(1-methyl-6-oxopyridin-3-yl)benzenesulfonamide]
> 5 µM | < 500 nM | < 500 nM | 500 to 5000 nM | – | – | – | – | – | – | – | CCS(=O)(=O)c1ccc(OCC2CC2)c(-c2cc(OC(F)F)c(=O)n(C)c2)c1 [Example 287, 5-[2-(cyclopropylmethoxy)-5-ethylsulfonylphenyl]-3-(difluoromethoxy)-1-methylpyridin-2-one]
> 5 µM | < 500 nM | < 500 nM | < 500 nM | – | – | – | – | – | – | – | CCS(=O)(=O)Nc1cnc(OCC2CC2)c(-c2cn(C)c(=O)c3ccccc23)c1 [Example 320, N-[6-(cyclopropylmethoxy)-5-(2-methyl-1-oxoisoquinolin-4-yl)pyridin-3-yl]ethanesulfonamide]
– | – | < 500 nM | – | > 5 µM | < 500 nM | < 500 nM | – | – | – | – | CCS(=O)(=O)Nc1ccc(Oc2ccc(F)cc2F)c(-c2cc(N(C)C)c(=O)n(C)c2)c1 [Example 464, N-[4-(2,4-difluorophenoxy)-3-[5-(dimethylamino)-1-methyl-6-oxopyridin-3-yl]phenyl]ethanesulfonamide]
> 5 µM | < 500 nM | < 500 nM | 500 to 5000 nM | – | – | – | – | – | – | – | Cc1cc(-c2cc(OCc3ccccc3C#N)cc(S(C)(=O)=O)c2)cn(C)c1=O [Example 334, 2-[[3-(1,5-dimethyl-6-oxopyridin-3-yl)-5-methylsulfonylphenoxy]methyl]benzonitrile]
– | – | – | – | – | – | – | > 5 µM | < 500 nM | < 500 nM | < 500 nM | CCS(=O)(=O)Nc1ccc(Oc2ccc(F)cc2F)c(-c2cn(C)c(=O)c3cncn23)c1 [Example 129, N-[4-(2,4-difluorophenoxy)-3-(7-methyl-8-oxoimidazo[1,5-a]pyrazin-5-yl)phenyl]ethanesulfonamide]
> 5 µM | < 500 nM | < 500 nM | 500 to 5000 nM | – | – | – | – | – | – | – | CCS(=O)(=O)Cc1ccc(Oc2ccc(F)cc2F)c(-c2cc(OCC(F)(F)F)c(=O)n(C)c2)c1 [Example 292, 5-[2-(2,4-difluorophenoxy)-5-(ethylsulfonylmethyl)phenyl]-1-methyl-3-(2,2,2-trifluoroethoxy)pyridin-2-one]
– | – | < 500 nM | – | > 5 µM | < 500 nM | < 500 nM | – | – | – | – | Cc1cc(-c2cc(NS(C)(=O)=O)ccc2O[C@H]2CC[C@H](O)CC2)cn(C)c1=O [Example 433, N-[3-(1,5-dimethyl-6-oxopyridin-3-yl)-4-(trans-4-hydroxycyclohexyl)oxyphenyl]methanesulfonamide]
> 5 µM | 500 to 5000 nM | < 500 nM | 500 to 5000 nM | – | – | – | – | – | – | – | C#Cc1cc(-c2cc(S(=O)(=O)CC)ccc2OCC2CC2)cn(C)c1=O [Example 284, 5-[2-(cyclopropylmethoxy)-5-ethylsulfonylphenyl]-3-ethynyl-1-methylpyridin-2-one]
– | – | 500 to 5000 nM | – | > 5 µM | > 5000 nM | > 5000 nM | – | – | – | – | Cn1cc(-c2cccc(NS(C)(=O)=O)c2)cc(O)c1=O [Example 467, N-[3-(5-hydroxy-1-methyl-6-oxopyridin-3-yl)phenyl]methanesulfonamide]
> 5 µM | < 500 nM | < 500 nM | < 500 nM | – | – | – | – | – | – | – | CCCCc1cnc(NS(=O)(=O)CC)nc1-c1cn(C)c(=O)c2ccccc12 [Example 309, N-[5-butyl-4-(2-methyl-1-oxoisoquinolin-4-yl)pyrimidin-2-yl] ethanesulfonamide]
– | – | < 500 nM | – | > 5 µM | < 500 nM | < 500 nM | – | – | – | – | Cc1cc(=O)n(C)cc1-c1cc(CS(C)(=O)=O)ccc1Oc1ccc(F)cc1F [Example 454, 5-[2-(2,4-difluorophenoxy)-5-(methylsulfonylmethyl)phenyl]-1,4-dimethylpyridin-2-one]
0.5 to 5 µM | < 500 nM | < 500 nM | < 500 nM | – | – | – | – | – | – | – | Cn1cc(-c2cc(S(C)(=O)=O)ccc2OCC2CC2)c2cc(Cl)oc2c1=O [Example 260, 2-chloro-4-[2-(cyclopropylmethoxy)-5-methylsulfonylphenyl]-6-methylfuro[2,3-c]pyridin-7-one]
> 5 µM | < 500 nM | < 500 nM | < 500 nM | – | – | – | – | – | – | – | CCS(=O)(=O)Nc1cc(-c2cn(C)c(=O)c3ccc(-c4cnn(C)c4)cc23)c(OCC2CC2)cc1F [Example 209, N-[4-(cyclopropylmethoxy)-2-fluoro-5-[2-methyl-6-(1-methylpyrazol-4-yl)-1-oxoisoquinolin-4-yl]phenyl]ethanesulfonamide]
> 5 µM | < 500 nM | < 500 nM | < 500 nM | – | – | – | – | – | – | – | CCS(=O)(=O)c1ccc(OCC2CC2)c(-c2cn(C)c(=O)c3cnc(-c4cnn(C)c4)nc23)c1 [Example 226, 8-[2-(cyclopropylmethoxy)-5-ethylsulfonylphenyl]-6-methyl-2-(1-methylpyrazol-4-yl)pyrido[4,3-d]pyrimidin-5-one]
– | – | – | – | – | – | – | > 5 µM | 500 to 5000 nM | 500 to 5000 nM | 500 to 5000 nM | CCS(=O)(=O)c1cccc(-c2cn(C)c(=O)c3cc(F)ccc23)c1 [Example 63, 4-(3-ethylsulfonylphenyl)-7-fluoro-2-methylisoquinolin-1-one]
> 5 µM | 500 to 5000 nM | < 500 nM | 500 to 5000 nM | – | – | – | – | – | – | – | Cc1cc(-c2cc(OCCc3ccccc3)cc(S(C)(=O)=O)c2)cn(C)c1=O [Example 326, 1,3-dimethyl-5-[3-methylsulfonyl-5-(2-phenylethoxy)phenyl]pyridin-2-one]
> 5 µM | < 500 nM | < 500 nM | < 500 nM | – | – | – | – | – | – | – | Cn1cc(-c2nc(NS(C)(=O)=O)ncc2OCC2CC2)c2cc(F)ccc2c1=O [Example 159, N-[5-(cyclopropylmethoxy)-4-(6-fluoro-2-methyl-1-oxoisoquinolin-4-yl)pyrimidin-2-yl]methanesulfonamide]
